This is an account of results in patent US20240269139A1, “COMPOUNDS FOR TARGETED PROTEIN DEGRADATION OF KINASES” (DANA-FARBER CANCER INSTITUTE, INC., priority 2020, published 2024).

What all share (format): cell-based
Assay [1] deals with T1, protein kinases (human kinome) (Homo sapiens, UniProt O94768).
T1 sequence (O94768 1-372): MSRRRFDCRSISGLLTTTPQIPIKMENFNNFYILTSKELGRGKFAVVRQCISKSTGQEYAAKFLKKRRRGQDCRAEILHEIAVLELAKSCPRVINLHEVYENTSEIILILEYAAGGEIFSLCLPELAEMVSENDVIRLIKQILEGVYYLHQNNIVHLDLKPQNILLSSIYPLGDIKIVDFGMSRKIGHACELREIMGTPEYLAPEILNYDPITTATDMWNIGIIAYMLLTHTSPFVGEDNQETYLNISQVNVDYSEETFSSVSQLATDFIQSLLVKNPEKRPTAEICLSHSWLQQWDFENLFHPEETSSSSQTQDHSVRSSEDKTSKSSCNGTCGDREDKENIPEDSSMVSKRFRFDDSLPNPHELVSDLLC
The note with it: for logFC STK17B (O94768): direction down; for logFC: STK17B (O94768).

In assay [2] the target is T2, protein kinases (human kinome) (Homo sapiens, UniProt Q9UEE5).
T2 sequence (Q9UEE5 1-414): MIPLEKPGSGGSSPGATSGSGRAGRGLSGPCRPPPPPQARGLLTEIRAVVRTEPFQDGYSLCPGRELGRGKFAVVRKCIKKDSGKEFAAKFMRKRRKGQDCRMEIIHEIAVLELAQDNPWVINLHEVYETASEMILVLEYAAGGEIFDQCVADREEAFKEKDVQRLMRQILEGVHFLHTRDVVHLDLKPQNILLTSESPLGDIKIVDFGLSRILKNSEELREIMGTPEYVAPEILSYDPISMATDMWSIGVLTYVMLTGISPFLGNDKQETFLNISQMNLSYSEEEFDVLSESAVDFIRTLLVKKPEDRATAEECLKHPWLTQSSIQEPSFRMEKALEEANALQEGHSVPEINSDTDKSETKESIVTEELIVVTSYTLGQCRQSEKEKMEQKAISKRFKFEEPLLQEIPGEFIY
To be noted: STK17A Q9UEE5.

Assay [3] addresses protein kinases (human kinome) (Homo sapiens, UniProt P42684). To be noted: for logFC: ABL2 (P42684) protein abundance, degrader vs DMSO, down.
Assay [4] has as its target protein kinases (human kinome) (Homo sapiens, UniProt Q16539).

Like-named read-outs stand apart in the source and are kept apart here.

Sequence of protein kinases (human kinome) (Homo sapiens, UniProt P42684) (P42684 whole entry): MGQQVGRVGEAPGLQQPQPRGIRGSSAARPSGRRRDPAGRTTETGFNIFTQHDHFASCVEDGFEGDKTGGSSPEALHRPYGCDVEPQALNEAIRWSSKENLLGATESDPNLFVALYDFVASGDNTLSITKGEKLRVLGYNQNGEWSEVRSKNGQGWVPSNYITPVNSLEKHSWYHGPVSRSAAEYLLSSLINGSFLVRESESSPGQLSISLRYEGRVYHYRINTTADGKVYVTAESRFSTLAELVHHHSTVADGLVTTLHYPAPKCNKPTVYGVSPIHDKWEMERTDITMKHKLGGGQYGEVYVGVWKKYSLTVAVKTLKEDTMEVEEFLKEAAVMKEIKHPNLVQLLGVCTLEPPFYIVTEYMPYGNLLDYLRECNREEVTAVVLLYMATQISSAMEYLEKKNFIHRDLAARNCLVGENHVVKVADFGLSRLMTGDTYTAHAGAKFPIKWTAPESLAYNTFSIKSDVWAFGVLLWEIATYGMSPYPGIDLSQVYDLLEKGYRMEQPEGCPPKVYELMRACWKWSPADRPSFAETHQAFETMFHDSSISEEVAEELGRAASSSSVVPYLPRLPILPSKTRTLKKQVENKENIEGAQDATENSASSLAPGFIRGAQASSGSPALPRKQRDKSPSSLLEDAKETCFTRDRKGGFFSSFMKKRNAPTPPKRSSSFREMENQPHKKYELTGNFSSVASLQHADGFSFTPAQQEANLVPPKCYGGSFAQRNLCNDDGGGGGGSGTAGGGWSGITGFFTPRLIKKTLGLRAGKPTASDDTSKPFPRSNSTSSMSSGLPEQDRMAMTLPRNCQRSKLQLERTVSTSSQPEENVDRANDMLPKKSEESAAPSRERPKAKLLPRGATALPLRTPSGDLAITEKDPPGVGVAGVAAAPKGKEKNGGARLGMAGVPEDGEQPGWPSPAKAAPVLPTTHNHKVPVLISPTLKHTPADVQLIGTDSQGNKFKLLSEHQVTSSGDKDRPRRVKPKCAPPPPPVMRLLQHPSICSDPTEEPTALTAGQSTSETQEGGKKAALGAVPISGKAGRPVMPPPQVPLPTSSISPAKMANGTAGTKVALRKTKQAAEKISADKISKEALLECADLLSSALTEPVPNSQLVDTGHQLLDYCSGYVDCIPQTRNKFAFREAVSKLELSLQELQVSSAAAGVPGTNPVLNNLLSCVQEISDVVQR
Sequence of protein kinases (human kinome) (Homo sapiens, UniProt Q16539) (Q16539 whole entry): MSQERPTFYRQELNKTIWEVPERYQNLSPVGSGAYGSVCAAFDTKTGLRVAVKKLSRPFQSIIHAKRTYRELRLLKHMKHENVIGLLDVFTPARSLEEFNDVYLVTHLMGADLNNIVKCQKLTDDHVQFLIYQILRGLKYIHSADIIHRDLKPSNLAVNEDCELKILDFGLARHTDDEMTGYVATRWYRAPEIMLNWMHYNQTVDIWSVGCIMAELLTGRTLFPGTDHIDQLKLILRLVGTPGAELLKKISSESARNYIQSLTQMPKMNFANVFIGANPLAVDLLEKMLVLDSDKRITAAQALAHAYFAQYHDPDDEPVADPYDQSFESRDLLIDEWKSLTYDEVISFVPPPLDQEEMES

As to `CS(=O)(=O)Nc1cccc(-c2csc3cnc(Nc4ccc(N5CCN(CCOCCOCCOc6cccc7c6C(=O)N(C6CCC(=O)NC6=O)C7=O)CC5)cc4)nc23)c1` (stereo not drawn) [RSS0628], the “logFC STK17B (O94768)” value in assay [1] (Experiment wp045) was −1.075. Besides, in assay [1] (experiment wp045), the logFC is −1.075. In assay [2] (experiment wp045), the logFC is −1.48 and the “logFC STK17A” value was −1.48.

For the compound `CS(=O)(=O)Nc1cccc(-c2csc3cnc(Nc4ccc(N5CCN(CCCCCOc6cccc7c6C(=O)N(C6CCC(=O)NC6=O)C7=O)CC5)cc4)nc23)c1` (stereo not drawn) [DB0614, N-(3-(2-((4-(4-(5-((2-(2,6-Dioxopiperidin-3-yl)-1,3-dioxoisoindolin-4-yl)oxy)pentyl)piperazin-1-yl)phenyl)amino)thieno[3,2-d]pyrimidin-7-yl)phenyl)methanesulfonamide], the results for the “logFC STK17B (O94768)” value in assay [1] (Experiment wp045) and in assay [1] (Experiment wp117) were −0.9829 and −0.7771, respectively. The logFC was −0.9829 in assay [1] (experiment wp045), −0.7771 in assay [1] (experiment wp117), −1.128 in assay [2] (experiment wp045) and −0.969 in assay [2] (experiment wp117). The “logFC STK17A” value is on record as −1.128 in assay [2] (experiment wp045) and −0.969 in assay [2] (experiment wp117).

As to `Nc1ncc(-c2ccc(S(=O)(=O)N(CCCNC(=O)CCOCCOCCOCCOCCOCCNc3cccc4c3C(=O)N(C3CCC(=O)NC3=O)C4=O)C3CC3)cc2)cc1-c1ccc2c(c1)CCNC2=O` (stereo not drawn) [WH.10417.099], the “logFC STK17B (O94768)” value is on record as −1.507 in assay [1] (Experiment wp056); −1.292 in assay [1] (Experiment wp103); −0.7924 in assay [1] (Experiment wp105); −1.472 in assay [1] (Experiment wp107); −1.234 in assay [1] (Experiment wp172). The logFC in assay [1] (experiment wp056) is listed as −1.507; in assay [1] (experiment wp103), −1.292; in assay [1] (experiment wp105), −0.7924; in assay [1] (experiment wp107) it was −1.472; in assay [1] (experiment wp172), −1.234.

As to `Cc1cnc(Nc2ccc(N3CCN(CCCCCCC(=O)N[C@H](C(=O)N4C[C@H](O)C[C@H]4C(=O)N[C@@H](C)c4ccc(-c5scnc5C)cc4)C(C)(C)C)CC3)cc2)nc1Nc1cccc(S(=O)(=O)NC(C)(C)C)c1` [JWG.123], the “logFC STK17B (O94768)” value in assay [1] (Experiment wp195) is recorded as −1.872. In assay [1] (experiment wp195), the logFC was −1.872. In addition, in assay [2] (experiment wp195), the logFC is on record as −0.6451 and the “logFC STK17A” value is −0.6451.

Consider `Nc1ncnc2c1c(-c1ccc(Oc3ccccc3)cc1)nn2[C@H]1CC[C@H](N2CCN(CCOCCNC(=O)CNc3cccc4c3C(=O)N(C3CCC(=O)NC3=O)C4=O)CC2)CC1` (stereo partly drawn) [SB1.G.181], for which, in assay [3], the logFC is reported as −2.405. In addition, the “logFC ABL2 (P42684)” value in assay [3] (experiment wp071) was −2.405.

Consider `C[C@@H]1C[C@@H](O)c2ncnc(N3CCN(C(=O)[C@H](CNCCCCCCCCCCc4cccc5c4C(=O)N(C4CCC(=O)NC4=O)C5=O)c4ccc(Cl)cc4)CC3)c21` (stereo partly drawn) [INY.03.041.01], for which, in assay [2] (experiment wp118), the logFC is given as −0.4361 and the “logFC STK17A” value was −0.4361. The “logFC STK17A” value in assay [2] (experiment wp135, 8 hr) is given as −0.497.

Take `CC(C)S(=O)(=O)c1ccccc1Nc1nc(Nc2ccc(N3CCN(CCOCCNC(=O)CNc4ccc5c(c4)C(=O)N(C4CCC(=O)NC4=O)C5=O)CC3)cc2)ncc1Cl` (stereo not drawn) [SK.3.93]: the logFC in assay [3] is reported as −0.5278. For the same compound, the “logFC ABL2 (P42684)” value in assay [3] (experiment wp016) is listed as −0.5278.

As for `CC(C)S(=O)(=O)c1ccccc1Nc1nc(Nc2ccc(N3CCN(CCOCCOCCC(=O)NCCNc4cccc5c4CN(C4CCC(=O)NC4=O)C5=O)CC3)cc2)ncc1Cl` (stereo not drawn) [TL13.97], in assay [3], the logFC is on record as −0.5116. Moreover, the “logFC ABL2 (P42684)” value in assay [3] (experiment wp137) is on record as −0.5116.

`Cc1ccc(C(=O)Nc2ccc(CN3CCN(CCOCCOCCNC(=O)CNc4cccc5c4C(=O)N(C4CCC(=O)NC4=O)C5=O)CC3)c(C(F)(F)F)c2)cc1C#Cc1cnc2cccnn12` (stereo not drawn) [TL13.150]: the logFC in assay [4] (MAPK14 (Q16539) protein abundance, degrader vs DMSO, down) is reported as −0.3738. Further, the “logFC MAPK14” value in assay [4] (MAPK14, accession Q16539, experiment wp081, direction of change down) is −0.3738.

For `CCc1cnn2c(N(Cc3ccc(N)nc3)C(=O)CCOCCOCCOCCNC(=O)CNc3cccc4c3C(=O)N(C3CCC(=O)NC3=O)C4=O)cc(N3CCCC[C@H]3CCO)nc12` (stereo partly drawn) [MFH.5.115.2], in assay [2] (experiment wp076), the logFC is on record as −0.6277 and the “logFC STK17A” value is listed as −0.6277.
